The conditions of this data set: 323.15 K; Liquid.

The text below walks through data of the NIST ThermoML archive (doi:10.1016/j.fluid.2006.06.005).

The structures appear in SMILES notation. ± gives the expanded uncertainty stated by the source.

In general, vapor or sublimation pressure refers to the equilibrium pressure above the liquid or solid.

On to `CC(=O)O` [acetic acid], for which the “vapor or sublimation pressure” value stood at 7.72 ± 0.28 kPa.
Then `CO` [methanol], with 55.61 ± 0.52 kPa; and `COC(C)=O` [methyl ethanoate], with 79.21 ± 0.71 kPa.
On to `O` [water], for which the “vapor or sublimation pressure” value is recorded as 12.35 ± 0.17 kPa.
